18 compounds from patent US8648085B2, “1, 5-dihydro-pyrazolo (3, 4-D) pyrimidin-4-one derivatives and their use as PDE9A mudulators for the treatment of CNS disorders” (Boehringer Ingelheim International GmbH, priority 2007, dated 2014) can be followed below.

The target of one test is T1, PDE1C (Homo sapiens, UniProt Q14123).
T1 construct: made in house; host or cells: SF9 insect cells (crude lysate used as enzyme source)
Briefly: PDE enzymatic activity assay (SPA), PDE1C, cAMP as substrate. It is filed as biochemical. The settings on record: ratio IC50 PDE1C / IC50 PDE9A; for illustrative purposes. How it is done:
(§1) The PDE enzymatic activity assays were run as SPA, in general according to the protocol of the manufacturer (Amersham Biosciences, product number: TRKQ 7100). As enzyme source, lysate (PBS with 1% Triton X-100 supplemented with protease inhibitors, cell debris removed by centrifugation at 13.000 rpm for 30 min) of SF 9 cell expressing the human PDE of interest was used. The total protein amount included in the assay varied upon infection and production efficacy of the SF9 cells and lay in the range of […].
(§2) In general, the assay conditions were as follows: • total assay volume: 40 μl • protein amount: 0.1-50 ng • substrate concentration (cGMP or cAMP): 20 nM; ˜1 mCi/l • incubation time: 60 min at room temperature • final DMSO concentration: 1%
(§3) The assays were run in 384-well format. The test reagents as well as the enzyme and the substrate were diluted in assay buffer. The assay buffer contained 50 mM Tris, 8.3 mM MgCl2, 1.7 mM EGTA, 0.1% BSA, 0.05% Tween 20; the pH of assay buffer was adjusted to 7.5. In case activity of PDE1C was analysed, 50 nM Calmodulin and 3 mM CaCl2 were included in the assay buffer. In case PDE9 activity was analyzed, the reaction was stopped by applying a PDE9 specific inhibitor (e.g. compounds according to WO2004/099210). PDE1C was analysed with cAMP as substrate, and PDE9 was analyzed with cGMP as substrate.
(§4) IC50 can be calculated in a conventional way, eventually with the help of GraphPadPrism or other suited software setting the positive control as 100 and the negative control as 0. For calculation of IC50 usually 8 dilutions of the test compound ([…]) are to be selected and tested following the aforementioned protocol.

The target of a further test is PDE9A (Homo sapiens, UniProt O76083). Briefly: PDE enzymatic activity assay (SPA), PDE9A. It is filed as biochemical. Set-up: made in house; host or cells: SF9 insect cells (crude lysate used as enzyme source). As to conditions: cGMP substrate, for illustrative purposes; for inhibition at 10 µM: 10 micromolar; for IC50: given as ranges. The protocol: as §1, §2, §3
PDE9A, sequence (O76083 whole entry): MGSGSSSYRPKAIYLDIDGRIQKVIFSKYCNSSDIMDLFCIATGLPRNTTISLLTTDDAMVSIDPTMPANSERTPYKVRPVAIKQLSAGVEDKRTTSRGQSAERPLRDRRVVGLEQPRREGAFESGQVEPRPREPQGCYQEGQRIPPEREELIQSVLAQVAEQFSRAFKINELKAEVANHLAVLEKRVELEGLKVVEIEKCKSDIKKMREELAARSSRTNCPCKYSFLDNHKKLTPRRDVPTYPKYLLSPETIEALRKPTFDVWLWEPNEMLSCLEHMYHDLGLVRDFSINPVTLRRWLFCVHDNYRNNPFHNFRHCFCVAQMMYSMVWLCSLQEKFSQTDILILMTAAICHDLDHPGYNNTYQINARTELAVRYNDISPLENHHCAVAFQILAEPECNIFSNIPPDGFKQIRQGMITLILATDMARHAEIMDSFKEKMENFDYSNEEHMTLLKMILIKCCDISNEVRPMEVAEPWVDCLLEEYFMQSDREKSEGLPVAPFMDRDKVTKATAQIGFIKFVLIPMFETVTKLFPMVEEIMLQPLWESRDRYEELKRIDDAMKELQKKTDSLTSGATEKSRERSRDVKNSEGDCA
Calculation of % Inhibition:
The activity of the positive control (minus the negative control=background) is set to 100% and activity in the presence of test compound is expressed relative to these 100%.
Within this setting, an inhibition above 100% might be possible due to the nature of the variation of the positive control within the assay, however, in this case the reported % inhibition had been adjusted to 100%.
as §4

As a reminder, the inhibition is the relative decrease from the control value, in per cent. One may read the IC50 as the concentration that gives 50% inhibition. Read a high IC50 as a need for much substance.

On to `O=c1[nH]c(Cc2ccccc2OC(F)(F)F)nc2c1cnn2-c1ccc(F)cc1F` [Example 12, 1-(2,4-Difluoro-phenyl)-6-(2-trifluoromethoxy-benzyl)-1,5-dihydro-pyrazolo[3,4-d]pyrimidin-4-one], for which the “Selectivity = IC50 PDE 1C/IC50 PDE9A (both nanomolar)” value (“Selectivity = IC50 PDE 1C/IC50 PDE9A” below) on PDE1C stood at 8. Moreover, at PDE9A, the inhibition at 10 µM was 102% and the 50% inhibitory concentration (IC50) is 10 to 500 nM.
The matching figures for `O=c1[nH]c(Cc2ccccc2OC(F)(F)F)nc2c1cnn2-c1cc(F)ccc1Cl` [Example 5, 1-(2-Chloro-5-fluoro-phenyl)-6-(2-trifluoromethoxy-benzyl)-1,5-dihydro-pyrazolo[3,4-d]pyrimidin-4-one]: 7, 96% and 10 to 500 nM.
The matching figures for `Cc1ccc(Cl)c(-n2ncc3c(=O)[nH]c(Cc4ccccc4OC(F)(F)F)nc32)c1` [Example 3, 1-(2-Chloro-5-methyl-phenyl)-6-(2-trifluoromethoxy-benzyl)-1,5-dihydro-pyrazolo[3,4-d]pyrimidin-4-one]: 4, 95% and 10 to 500 nM.
The like results for `Cc1ccc(Cl)cc1-n1ncc2c(=O)[nH]c(Cc3ccccc3OC(F)(F)F)nc21` [Example 15, 1-(5-Chloro-2-methyl-phenyl)-6-(2-trifluoromethoxy-benzyl)-1,5-dihydro-pyrazolo[3,4-d]pyrimidin-4-one] were, in that order, 271, 94% and 10 to 500 nM.
As to `O=c1[nH]c(Cc2ccccc2OC(F)(F)F)nc2c1cnn2-c1ccc(F)cc1Cl` [Example 13, 1-(2-Chloro-4-fluoro-phenyl)-6-(2-trifluoromethoxy-benzyl)-1,5-dihydro-pyrazolo[3,4-d]pyrimidin-4-one], at PDE1C, the “Selectivity = IC50 PDE 1C/IC50 PDE9A” value came to 10. Also, on PDE9A, the inhibition at 10 µM turned out to be 96% and the IC50 was in the range of 10 to 500 nM.
In the case of `Cc1ccncc1-n1ncc2c(=O)[nH]c(Cc3ccccc3OC(F)(F)F)nc21` [Example 1, 1-(4-Methyl-pyridin-3-yl)-6-(2-tri-fluoromethoxy-benzyl)-1,5-dihydro-pyrazolo[3,4-d]pyrimidin-4-one], the “Selectivity = IC50 PDE 1C/IC50 PDE9A” value on PDE1C stood at 39. Further, on PDE9A, the inhibition at 10 µM worked out at 99% and the IC50 fell in the range of 10 to 500 nM.
The matching figures for `COc1ccc(Cl)c(-n2ncc3c(=O)[nH]c(Cc4ccccc4OC(F)(F)F)nc32)c1` [Example 22, 1-(2-Chloro-5-methoxy-phenyl)-6-(2-trifluoromethoxy-benzyl)-1,5-dihydro-pyrazolo[3,4-d]pyrimidin-4-one]: 14, 98% and 10 to 500 nM.
Regarding `O=C(O)c1cccc(-n2ncc3c(=O)[nH]c(Cc4ccccc4OC(F)(F)F)nc32)c1` [Example 30-1, 1-(3-Carbox-phenyl)-6-(2-trifluoromethoxy-benzyl)-1,5-dihydro-pyrazolo[3,4-d]pyrimidin-4-one], the “Selectivity = IC50 PDE 1C/IC50 PDE9A” value at PDE1C is on record as 55. At PDE9A, the inhibition at 10 µM is 101% and the half-maximal inhibitory concentration (IC50) lay in the range of 10 to 500 nM.
The matching figures for `O=c1[nH]c(Cc2ccccc2OC(F)(F)F)nc2c1cnn2-c1ccc(F)cc1` [Example 11, 1-(4-Fluoro-phenyl)-6-(2-trifluoromethoxy-benzyl)-1,5-dihydro-pyrazolo[3,4-d]pyrimidin-4-one]: 21, 47% and greater than 500 nM.
The matching figures for `O=c1[nH]c(Cc2ccccc2OC(F)(F)F)nc2c1cnn2-c1cccc(F)c1F` [Example 30-4, 1-(2,3-Difluoro-phenyl)-6-(2-trifluoromethoxy-benzyl)-1,5-dihydro-pyrazolo[3,4-d]pyrimidin-4-one]: 3, 99% and 10 to 500 nM.
The like results for `O=c1[nH]c(Cc2ccccc2OC(F)(F)F)nc2c1cnn2-c1cccnc1` [Example 33, 6-(2-Trifluoromethoxy-benzyl)-1-(pyridin-3-yl)-1,5-dihydro-pyrazolo[3,4-d]pyrimidin-4-one] were, in that order, 4, 89% and 10 to 500 nM.
Regarding `Cc1c(F)cccc1-n1ncc2c(=O)[nH]c(Cc3ccccc3OC(F)(F)F)nc21` [Example 28, 1-(3-Fluoro-2-methyl-phenyl)-6-(2-trifluoromethoxy-benzyl)-1,5-dihydro-pyrazolo[3,4-d]pyrimidin-4-one], the “Selectivity = IC50 PDE 1C/IC50 PDE9A” value at PDE1C is 8. On PDE9A, the inhibition at 10 µM was determined as 96% and the half-inhibitory concentration (IC50) was in the range of 10 to 500 nM.
The like results for `O=c1[nH]c(Cc2ccccc2OC(F)(F)F)nc2c1cnn2-c1cc(O)ccc1Cl` [Example 30-3, 1-(2-Chloro-5-hydroxy-phenyl)-6-(2-trifluoromethoxy-benzyl)-1,5-dihydro-pyrazolo[3,4-d]pyrimidin-4-one] were, in that order, 14, 100% and 10 to 500 nM.
The like results for `Cc1cccc(-n2ncc3c(=O)[nH]c(Cc4ccccc4OC(F)(F)F)nc32)c1C` [Example 19, 1-(2,3-Dimethyl-phenyl)-6-(2-trifluoromethoxy-benzyl)-1,5-dihydro-pyrazolo[3,4-d] pyrimidin-4-one] were, in that order, 5, 74% and 10 to 500 nM.
The like results for `Cc1ccccc1-n1ncc2c(=O)[nH]c(Cc3ccccc3OC(F)(F)F)nc21` [Example 2, 1-o-Tolyl-6-(2-trifluoromethoxy-benzyl)-1,5-dihydro-pyrazolo[3,4-d] pyrimidin-4-one] were, in that order, 14, 98% and 10 to 500 nM.
Consider `O=c1[nH]c(Cc2ccccc2OC(F)(F)F)nc2c1cnn2-c1cnccc1C(F)(F)F` [Example 32, 6-(2-Trifluoromethoxy-benzyl)-1-(4-trifluoromethyl-pyridin-3-yl)-1,5-dihydro-pyrazolo[3,4-d]pyrimidin-4-one], for which the “Selectivity = IC50 PDE 1C/IC50 PDE9A” value on PDE1C turned out to be 11. On PDE9A, the inhibition at 10 µM was 91% and the half-inhibitory concentration (IC50) was 10 to 500 nM.
The like results for `CN(C)C(=O)c1ccc(Cl)c(-n2ncc3c(=O)[nH]c(Cc4ccccc4OC(F)(F)F)nc32)c1` [Example 36, 1-[2-Chloro-5-(dimethylamino-carbonyl)-phenyl]-6-(2-trifluoromethoxy-benzyl)-1,5-dihydro-pyrazolo[3,4-d]pyrimidin-4-one] were, in that order, 54, 98% and 10 to 500 nM.
For the compound `O=c1[nH]c(Cc2ccccc2OC(F)(F)F)nc2c1cnn2-c1cc(F)ccc1Br` [Example 7, 1-(2-Bromo-5-fluoro-phenyl)-6-(2-trifluoromethoxy-benzyl)-1,5-dihydro-pyrazolo[3,4-d]pyrimidin-4-one], the “Selectivity = IC50 PDE 1C/IC50 PDE9A” value at PDE1C was 9. Further, on PDE9A, the inhibition at 10 µM worked out at 91% and the IC50 was in the range of 10 to 500 nM.
